Targets include Histamine H3 receptor (Homo sapiens, UniProt Q9Y5N1); Adenosine receptor A2a (Homo sapiens, UniProt P29274); Motilin receptor (Homo sapiens, UniProt O43193).
For assay [1], the target named is 5-hydroxytryptamine receptor 2B (Homo sapiens, UniProt P41595). The format is functional, cell-based.
Assay [2] addresses T1, Gamma-aminobutyric acid receptor subunit alpha-1 (Rattus norvegicus, UniProt P62813). It is filed as functional.
For the next assay, the target named is Cannabinoid receptor 1 (Homo sapiens, UniProt P21554). It is filed as functional, cell-based.
Sequence of Cannabinoid receptor 1 (P21554 whole entry): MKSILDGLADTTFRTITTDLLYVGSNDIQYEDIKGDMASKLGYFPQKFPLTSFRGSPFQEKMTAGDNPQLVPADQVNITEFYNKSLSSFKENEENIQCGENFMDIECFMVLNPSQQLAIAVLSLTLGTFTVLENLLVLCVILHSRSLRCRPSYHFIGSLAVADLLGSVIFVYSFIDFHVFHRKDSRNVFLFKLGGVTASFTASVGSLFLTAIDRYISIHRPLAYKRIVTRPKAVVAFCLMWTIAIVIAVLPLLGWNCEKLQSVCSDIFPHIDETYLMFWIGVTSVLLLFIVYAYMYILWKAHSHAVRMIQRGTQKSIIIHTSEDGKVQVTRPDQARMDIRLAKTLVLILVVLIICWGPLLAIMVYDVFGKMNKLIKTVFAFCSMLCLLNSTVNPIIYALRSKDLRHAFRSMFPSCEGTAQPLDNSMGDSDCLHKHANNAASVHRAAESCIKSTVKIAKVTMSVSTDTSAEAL
In assay [3] the target is 5-hydroxytryptamine receptor 2A (Homo sapiens, UniProt P28223). It is filed as functional, cell-based.
Sequence of 5-hydroxytryptamine receptor 2A (P28223 whole entry): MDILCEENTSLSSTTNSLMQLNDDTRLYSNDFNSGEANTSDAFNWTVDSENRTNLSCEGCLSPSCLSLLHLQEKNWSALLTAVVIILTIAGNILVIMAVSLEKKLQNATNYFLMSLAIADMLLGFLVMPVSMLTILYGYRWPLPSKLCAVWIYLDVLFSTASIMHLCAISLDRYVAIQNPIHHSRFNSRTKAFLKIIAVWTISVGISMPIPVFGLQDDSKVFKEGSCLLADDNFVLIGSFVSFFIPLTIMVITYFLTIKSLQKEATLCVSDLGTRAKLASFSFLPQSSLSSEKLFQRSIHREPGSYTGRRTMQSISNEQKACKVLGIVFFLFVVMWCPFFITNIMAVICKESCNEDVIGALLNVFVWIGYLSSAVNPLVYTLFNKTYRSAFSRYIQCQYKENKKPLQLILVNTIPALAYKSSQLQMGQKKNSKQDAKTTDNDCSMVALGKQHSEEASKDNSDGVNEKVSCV
In assay [4] the target is Sodium-dependent dopamine transporter (Homo sapiens, UniProt Q01959).
Assay [5] concerns the target Sodium-dependent noradrenaline transporter (Homo sapiens, UniProt P23975).
The target of assay [6] is T2, Muscarinic acetylcholine receptor M1 (Homo sapiens, UniProt P11229).
T2 sequence (P11229 whole entry): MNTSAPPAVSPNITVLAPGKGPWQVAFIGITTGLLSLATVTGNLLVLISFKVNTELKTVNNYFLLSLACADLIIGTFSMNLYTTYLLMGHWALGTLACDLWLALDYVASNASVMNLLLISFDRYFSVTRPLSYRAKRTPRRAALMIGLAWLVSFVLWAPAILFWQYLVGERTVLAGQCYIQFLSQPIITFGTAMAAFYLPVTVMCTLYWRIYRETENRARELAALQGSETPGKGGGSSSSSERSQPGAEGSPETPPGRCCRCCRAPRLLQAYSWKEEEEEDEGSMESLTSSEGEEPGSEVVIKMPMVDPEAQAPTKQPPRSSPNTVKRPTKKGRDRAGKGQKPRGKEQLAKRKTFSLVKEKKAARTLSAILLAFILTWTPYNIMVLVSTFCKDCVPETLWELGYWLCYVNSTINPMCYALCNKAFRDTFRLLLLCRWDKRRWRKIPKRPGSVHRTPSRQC
It is filed as functional.

Assay [7] has as its target Sodium-dependent serotonin transporter (Homo sapiens, UniProt P31645).
Assay [8] concerns the target cGMP-inhibited 3',5'-cyclic phosphodiesterase 3A (Homo sapiens, UniProt Q14432). The format is functional.
The target in assay [9] is T1, Gamma-aminobutyric acid receptor subunit alpha-1.
For assay [10], the target named is T3, Alpha-2A adrenergic receptor (Homo sapiens, UniProt P08913).
T3 sequence (P08913 whole entry): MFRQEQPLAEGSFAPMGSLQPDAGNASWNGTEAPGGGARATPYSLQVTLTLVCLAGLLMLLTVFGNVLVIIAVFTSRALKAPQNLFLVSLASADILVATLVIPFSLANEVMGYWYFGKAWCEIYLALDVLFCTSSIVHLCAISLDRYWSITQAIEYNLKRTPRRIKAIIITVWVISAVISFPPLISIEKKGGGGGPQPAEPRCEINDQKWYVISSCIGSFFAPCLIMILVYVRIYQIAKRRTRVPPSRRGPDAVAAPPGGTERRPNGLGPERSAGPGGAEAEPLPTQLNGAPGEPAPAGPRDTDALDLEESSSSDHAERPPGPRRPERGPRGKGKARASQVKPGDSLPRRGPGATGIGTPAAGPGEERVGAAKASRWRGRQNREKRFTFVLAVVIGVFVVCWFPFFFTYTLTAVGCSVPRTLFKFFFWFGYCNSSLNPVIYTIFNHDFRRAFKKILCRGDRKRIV
It is filed as functional, cell-based.

Assay [11] deals with Glutamate receptor ionotropic, NMDA 1 (Rattus norvegicus, UniProt P35439).
In another assay the target is Histamine H2 receptor (Homo sapiens, UniProt P25021). It is filed as functional, cell-based.
Sequence of Histamine H2 receptor (P25021 whole entry): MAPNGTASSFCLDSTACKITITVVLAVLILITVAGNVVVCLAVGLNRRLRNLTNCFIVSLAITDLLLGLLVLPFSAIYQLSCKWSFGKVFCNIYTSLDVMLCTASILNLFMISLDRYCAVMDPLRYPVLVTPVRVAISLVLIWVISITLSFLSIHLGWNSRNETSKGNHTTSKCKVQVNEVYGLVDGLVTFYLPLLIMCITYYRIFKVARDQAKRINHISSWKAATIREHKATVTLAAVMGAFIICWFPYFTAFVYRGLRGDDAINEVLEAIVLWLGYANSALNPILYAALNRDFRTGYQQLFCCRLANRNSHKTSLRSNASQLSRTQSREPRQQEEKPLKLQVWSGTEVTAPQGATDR
Assay [12] concerns the target Beta-2 adrenergic receptor (Homo sapiens, UniProt P07550).
In assay [13] the target is Beta-1 adrenergic receptor (Homo sapiens, UniProt P08588). It is filed as functional.
Sequence of Beta-1 adrenergic receptor (P08588 whole entry): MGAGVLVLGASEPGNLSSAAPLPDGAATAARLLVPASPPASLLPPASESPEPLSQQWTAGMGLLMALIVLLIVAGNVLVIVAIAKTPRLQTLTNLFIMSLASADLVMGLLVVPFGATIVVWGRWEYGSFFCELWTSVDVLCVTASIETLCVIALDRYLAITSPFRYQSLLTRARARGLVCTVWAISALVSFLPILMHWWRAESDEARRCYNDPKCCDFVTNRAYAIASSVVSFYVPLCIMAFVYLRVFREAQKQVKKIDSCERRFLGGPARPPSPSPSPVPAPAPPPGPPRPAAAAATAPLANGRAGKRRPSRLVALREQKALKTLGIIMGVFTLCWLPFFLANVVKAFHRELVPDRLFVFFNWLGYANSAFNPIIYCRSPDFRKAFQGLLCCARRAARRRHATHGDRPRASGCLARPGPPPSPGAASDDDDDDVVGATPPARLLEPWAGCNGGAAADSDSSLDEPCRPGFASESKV
In assay [14] the target is Growth hormone secretagogue receptor type 1 (Homo sapiens, UniProt Q92847).
Assay [15] addresses T4, Neuropeptide Y receptor type 1 (Homo sapiens, UniProt P25929).
T4 sequence (P25929 whole entry): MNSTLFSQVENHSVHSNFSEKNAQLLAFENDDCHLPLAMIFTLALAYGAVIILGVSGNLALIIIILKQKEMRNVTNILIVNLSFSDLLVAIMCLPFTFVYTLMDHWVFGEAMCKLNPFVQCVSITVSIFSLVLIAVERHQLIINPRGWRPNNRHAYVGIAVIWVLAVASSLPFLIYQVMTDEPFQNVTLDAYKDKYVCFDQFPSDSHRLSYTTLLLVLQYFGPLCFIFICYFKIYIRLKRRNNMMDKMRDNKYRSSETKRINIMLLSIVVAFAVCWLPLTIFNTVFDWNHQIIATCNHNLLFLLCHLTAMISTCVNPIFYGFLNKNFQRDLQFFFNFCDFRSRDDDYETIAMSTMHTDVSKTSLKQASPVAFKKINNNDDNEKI

In assay [16] the target is T5, 5-hydroxytryptamine receptor 2C (Homo sapiens, UniProt P28335).
T5 sequence (P28335 whole entry): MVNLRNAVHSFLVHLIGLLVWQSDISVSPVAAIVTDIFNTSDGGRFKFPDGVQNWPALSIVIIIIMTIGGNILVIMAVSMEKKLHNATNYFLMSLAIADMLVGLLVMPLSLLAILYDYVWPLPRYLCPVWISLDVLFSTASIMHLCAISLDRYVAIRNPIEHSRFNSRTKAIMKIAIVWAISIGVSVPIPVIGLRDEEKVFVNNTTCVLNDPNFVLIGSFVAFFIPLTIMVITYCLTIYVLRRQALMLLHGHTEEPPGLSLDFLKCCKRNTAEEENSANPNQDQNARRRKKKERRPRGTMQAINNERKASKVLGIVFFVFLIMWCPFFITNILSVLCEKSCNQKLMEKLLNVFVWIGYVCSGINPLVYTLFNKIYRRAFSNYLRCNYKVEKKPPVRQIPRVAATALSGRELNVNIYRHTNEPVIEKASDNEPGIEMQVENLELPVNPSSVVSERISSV

Structures are written as SMILES. Where only a bound is given, the exact number is not on record here.
Also: assay procedure not described here.

Sequence of Motilin receptor (O43193 whole entry): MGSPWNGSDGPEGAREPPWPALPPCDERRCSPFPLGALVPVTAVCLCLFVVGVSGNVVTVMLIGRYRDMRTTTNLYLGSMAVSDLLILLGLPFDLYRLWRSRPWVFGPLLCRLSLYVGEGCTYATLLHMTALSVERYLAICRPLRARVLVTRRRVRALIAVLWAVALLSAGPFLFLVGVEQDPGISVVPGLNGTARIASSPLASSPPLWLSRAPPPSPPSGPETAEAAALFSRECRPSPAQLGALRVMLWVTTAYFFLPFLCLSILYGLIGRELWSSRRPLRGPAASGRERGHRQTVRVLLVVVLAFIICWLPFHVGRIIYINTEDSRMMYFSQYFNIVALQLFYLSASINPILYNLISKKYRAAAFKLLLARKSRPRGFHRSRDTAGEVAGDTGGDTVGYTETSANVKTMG
Sequence of cGMP-inhibited 3',5'-cyclic phosphodiesterase 3A (Q14432 whole entry): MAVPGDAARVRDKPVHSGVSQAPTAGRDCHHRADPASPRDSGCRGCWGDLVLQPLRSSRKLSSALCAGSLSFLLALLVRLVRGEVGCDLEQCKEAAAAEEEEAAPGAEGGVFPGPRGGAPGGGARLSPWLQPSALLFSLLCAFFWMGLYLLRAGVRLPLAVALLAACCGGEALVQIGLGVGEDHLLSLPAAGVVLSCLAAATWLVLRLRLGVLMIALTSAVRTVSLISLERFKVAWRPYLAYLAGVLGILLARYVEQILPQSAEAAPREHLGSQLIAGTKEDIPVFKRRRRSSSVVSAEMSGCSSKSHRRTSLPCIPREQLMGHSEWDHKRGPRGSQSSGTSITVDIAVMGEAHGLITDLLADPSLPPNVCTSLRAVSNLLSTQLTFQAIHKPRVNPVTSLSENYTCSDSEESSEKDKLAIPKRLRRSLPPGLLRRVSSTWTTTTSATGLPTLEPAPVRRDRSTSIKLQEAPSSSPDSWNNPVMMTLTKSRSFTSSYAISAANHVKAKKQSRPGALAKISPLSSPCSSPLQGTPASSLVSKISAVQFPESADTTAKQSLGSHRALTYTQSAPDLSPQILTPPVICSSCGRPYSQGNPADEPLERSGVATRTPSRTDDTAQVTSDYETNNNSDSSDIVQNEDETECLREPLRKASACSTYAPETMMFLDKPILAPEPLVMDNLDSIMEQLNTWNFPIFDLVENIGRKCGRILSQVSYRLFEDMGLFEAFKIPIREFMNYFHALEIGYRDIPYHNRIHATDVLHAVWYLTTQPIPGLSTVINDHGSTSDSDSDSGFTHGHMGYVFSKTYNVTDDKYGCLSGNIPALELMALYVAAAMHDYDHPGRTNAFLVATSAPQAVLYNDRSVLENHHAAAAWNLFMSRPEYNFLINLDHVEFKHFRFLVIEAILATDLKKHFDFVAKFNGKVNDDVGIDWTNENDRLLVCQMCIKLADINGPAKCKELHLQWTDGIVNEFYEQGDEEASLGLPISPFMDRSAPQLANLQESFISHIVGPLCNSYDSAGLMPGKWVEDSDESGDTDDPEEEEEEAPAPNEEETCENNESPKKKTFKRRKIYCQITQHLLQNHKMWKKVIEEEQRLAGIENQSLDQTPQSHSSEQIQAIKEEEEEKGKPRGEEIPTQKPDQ
Sequence of Sodium-dependent serotonin transporter (P31645 whole entry): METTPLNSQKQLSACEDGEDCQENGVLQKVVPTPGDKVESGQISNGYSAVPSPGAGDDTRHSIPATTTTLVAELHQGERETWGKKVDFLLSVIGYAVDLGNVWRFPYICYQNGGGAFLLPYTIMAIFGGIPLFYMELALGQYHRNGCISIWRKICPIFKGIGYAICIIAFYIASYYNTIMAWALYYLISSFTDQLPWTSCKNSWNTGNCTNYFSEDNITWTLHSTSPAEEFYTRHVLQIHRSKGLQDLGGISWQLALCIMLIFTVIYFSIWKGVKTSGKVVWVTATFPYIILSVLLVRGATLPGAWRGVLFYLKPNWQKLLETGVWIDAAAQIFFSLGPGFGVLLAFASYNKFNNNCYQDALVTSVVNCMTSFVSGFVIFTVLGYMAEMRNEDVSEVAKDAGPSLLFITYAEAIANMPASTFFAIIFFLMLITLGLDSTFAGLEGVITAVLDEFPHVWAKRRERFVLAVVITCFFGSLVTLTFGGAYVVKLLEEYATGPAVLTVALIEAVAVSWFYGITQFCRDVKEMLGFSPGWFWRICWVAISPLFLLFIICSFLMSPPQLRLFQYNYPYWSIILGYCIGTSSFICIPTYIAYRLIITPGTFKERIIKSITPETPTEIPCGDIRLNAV
Sequence of 5-hydroxytryptamine receptor 2B (P41595 whole entry): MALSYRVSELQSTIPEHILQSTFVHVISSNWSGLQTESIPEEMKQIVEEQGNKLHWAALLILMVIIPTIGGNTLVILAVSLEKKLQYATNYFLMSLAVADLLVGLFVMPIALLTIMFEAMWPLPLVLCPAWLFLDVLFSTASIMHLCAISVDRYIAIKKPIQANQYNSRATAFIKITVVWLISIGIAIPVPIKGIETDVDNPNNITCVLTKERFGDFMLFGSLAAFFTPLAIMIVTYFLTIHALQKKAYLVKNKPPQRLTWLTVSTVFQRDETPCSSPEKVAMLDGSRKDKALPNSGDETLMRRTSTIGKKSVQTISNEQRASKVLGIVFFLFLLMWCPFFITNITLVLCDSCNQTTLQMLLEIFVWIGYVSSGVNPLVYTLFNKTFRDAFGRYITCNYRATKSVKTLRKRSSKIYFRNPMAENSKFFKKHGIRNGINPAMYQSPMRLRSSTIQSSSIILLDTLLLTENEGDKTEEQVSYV
Sequence of Histamine H3 receptor (Q9Y5N1 whole entry): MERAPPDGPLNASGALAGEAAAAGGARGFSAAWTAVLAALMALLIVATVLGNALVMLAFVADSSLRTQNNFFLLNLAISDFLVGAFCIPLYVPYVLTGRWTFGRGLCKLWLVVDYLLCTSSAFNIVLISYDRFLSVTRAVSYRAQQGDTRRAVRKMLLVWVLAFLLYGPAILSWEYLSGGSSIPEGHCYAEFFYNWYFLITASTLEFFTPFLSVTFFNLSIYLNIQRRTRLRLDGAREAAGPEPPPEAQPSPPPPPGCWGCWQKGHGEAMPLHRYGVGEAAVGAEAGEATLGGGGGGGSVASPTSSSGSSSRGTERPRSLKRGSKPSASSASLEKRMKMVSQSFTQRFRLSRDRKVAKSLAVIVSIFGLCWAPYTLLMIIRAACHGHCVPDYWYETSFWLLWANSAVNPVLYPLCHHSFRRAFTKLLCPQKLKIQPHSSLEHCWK

Take `O=C(C[S+]([O-])C(c1ccccc1)c1ccccc1)NO` (stereo unspecified): the AC50 (commonly the concentration at which the activity in the assay is half-maximal) in assay [1] is > 30 µM; in assay [2], > 30 µM; at Cannabinoid receptor 1 it was > 30 µM; in assay [3], > 30 µM; in [4] it was 9.4 µM; in assay [5], > 30 µM. Also, the AC50 in [6] was > 30 µM; in assay [7], > 30 µM; in assay [8], > 10 µM; in [9], > 30 µM; at Histamine H3 receptor, > 30 µM; in assay [10], > 30 µM. The half-maximal activity concentration (AC50) (in assay [11]; on Histamine H2 receptor; at Adenosine receptor A2a; at Motilin receptor; in assay [12]; in [13]) was > 30 µM throughout. Also, the AC50 in [14], in assay [15] and in [16] was > 30 µM each time.

On to `CN1C(=O)CC(c2ccccc2)C1=O` (stereo unspecified) [PHENSUXIMIDE], for which the concentration at half-maximal activity (AC50) in [1] is > 10 µM; in assay [2] it was > 10 µM; at Cannabinoid receptor 1 it was > 30 µM; in assay [3], > 10 µM; in assay [4] it was > 10 µM; in assay [5], > 10 µM. Also, the AC50 in [6] was > 10 µM; in assay [7] it was > 10 µM; in [8] it was > 30 µM; in assay [9] it was > 10 µM; on Histamine H3 receptor, > 10 µM; in [10], > 10 µM. Moreover, the half-maximal activity concentration (AC50) (in assay [11]; at Histamine H2 receptor; at Adenosine receptor A2a; on Motilin receptor; in assay [12]; in assay [13]) was > 10 µM each time. Also, the AC50 in [14] was > 10 µM; in assay [15], > 10 µM; in assay [16], > 30 µM.

For the compound `CCC1(C2=CCCCCC2)C(=O)NC(=O)NC1=O` [HEPTABARBITAL], the concentration at half-maximal activity (AC50) is > 10 µM in assay [1]; > 10 µM in assay [2]; > 30 µM on Cannabinoid receptor 1; > 10 µM in assay [3]; > 10 µM in [4]; > 10 µM in assay [5]. The AC50 in assay [6] is > 10 µM; in [7], > 10 µM; in assay [8], > 30 µM; in assay [9], > 10 µM; on Histamine H3 receptor, > 10 µM; in assay [10], > 10 µM. Also, the concentration at half-maximal activity (AC50) (in [11]; on Histamine H2 receptor; at Adenosine receptor A2a; at Motilin receptor; in assay [12]; in assay [13]) was > 10 µM in each case. Also, the figures for the concentration at half-maximal activity (AC50) in assay [14], in assay [15] and in assay [16] were > 10 µM, > 10 µM and > 30 µM, respectively.

For `NC(CO)C(=O)NNCc1ccc(O)c(O)c1O` (stereo unspecified) [BENSERAZIDE], the AC50 in assay [1] was > 10 µM; in assay [2], > 10 µM; at Cannabinoid receptor 1, > 30 µM; in assay [3] it was > 30 µM; in assay [4], > 30 µM; in [5], > 30 µM. The AC50 in [6] is > 10 µM; in assay [7] it was > 30 µM; in assay [8], > 30 µM; in [9], > 10 µM; at Histamine H3 receptor, > 10 µM; in assay [10] it was > 10 µM. The AC50 was > 10 µM in [11]; > 10 µM on Histamine H2 receptor; > 30 µM on Adenosine receptor A2a; > 10 µM on Motilin receptor; > 10 µM in assay [12]; > 10 µM in assay [13]. Besides, the values for the concentration at half-maximal activity (AC50) in assay [14], in assay [15] and in [16] were > 30 µM, 5.67 µM and > 30 µM, respectively.

As for `COc1ccc(C(=O)N2CCN(c3ccc4c(c3)CCC(=O)N4)CC2)cc1OC` [VESNARINONE], the AC50 (in [1]; in assay [2]; at Cannabinoid receptor 1; in assay [3]; in assay [4]; in assay [5]) was > 30 µM each time. The half-maximal activity concentration (AC50) was > 30 µM in assay [6]; 21 µM in assay [7]; 8.46 µM in [8]; > 30 µM in assay [9]; > 30 µM at Histamine H3 receptor; > 30 µM in [10]. The concentration at half-maximal activity (AC50) (in [11]; at Histamine H2 receptor; on Adenosine receptor A2a; on Motilin receptor; in assay [12]; in assay [13]) was > 30 µM each time. Also, the AC50 in [14], in assay [15] and in assay [16] was > 30 µM throughout.

With `C#C[C@]1(O)CC[C@H]2[C@@H]3CCC4=CCCC[C@@H]4[C@H]3CC[C@@]21C` [LYNESTRENOL], the concentration at half-maximal activity (AC50) (in assay [1]; in [2]; at Cannabinoid receptor 1; in [3]; in assay [4]; in assay [5]) was > 30 µM throughout. For the same compound, the AC50 (in assay [6]; in [7]; in [8]; in assay [9]; on Histamine H3 receptor; in [10]) was > 30 µM each time. For the same compound, the AC50 (in assay [11]; on Histamine H2 receptor; on Adenosine receptor A2a; on Motilin receptor; in [12]; in assay [13]) was > 30 µM throughout. The AC50 in assay [14], in assay [15] and in [16] was > 30 µM each time.
